Measurements: the supplement of paper PMC10307832

Assays:
Test in all cases: relative viability (nuclei count vs DMSO), 5 days (fraction); higher = more cells survive
GSK-J4 + Foretinib = compound: CCOC(=O)CCNc1cc(N2CCc3ccccc3CC2)nc(-c2ccccn2)n1 [GSK-J4] + COc1cc2c(Oc3ccc(NC(=O)C4(C(=O)Nc5ccc(F)cc5)CC4)cc3F)ccnc2cc1OCCCN1CCOCC1 [Foretinib] (partner 0.25 µM)
In short: (§1)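 Lung cancer cell lines in 1536-well plates were dosed by pin tool the day after seeding, either with one drug alone or with a fixed anchor-drug dose plus five library-drug doses (not always all listed) in √10 steps. After 5 days, cells were fixed and their nuclei stained in one step (final 0.05% Triton X-100, 1% formaldehyde, 1 ug/ml Hoechst), then counted on 4× images. Relative viability is the nuclei count in treated wells divided by that in vehicle wells. Values are medians of duplicate plates.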

AZ3146 + Navitoclax = compound: CN1CCC(CC1)OC2=CC(=C(C=C2)NC3=NC=C4C(=N3)N(C(=O)N4C)C5CCCC5)OC [AZ3146] + CC1(C)CCC(c2ccc(Cl)cc2)=C(CN2CCN(c3ccc(C(=O)NS(=O)(=O)c4ccc(N[C@H](CCN5CCOCC5)CSc5ccccc5)c(S(=O)(=O)C(F)(F)F)c4)cc3)CC2)C1 [Navitoclax] (partner 0.5 µM)
In short: as §1

AZ3146 + Decitabine = compound: CN1CCC(CC1)OC2=CC(=C(C=C2)NC3=NC=C4C(=N3)N(C(=O)N4C)C5CCCC5)OC [AZ3146] + Nc1ncn([C@H]2C[C@H](O)[C@@H](CO)O2)c(=O)n1 [Decitabine] (partner 2 µM)
In short: as §1

GSK-J4 + Decitabine = compound: CCOC(=O)CCNc1cc(N2CCc3ccccc3CC2)nc(-c2ccccn2)n1 [GSK-J4] + Nc1ncn([C@H]2C[C@H](O)[C@@H](CO)O2)c(=O)n1 [Decitabine] (partner 2 µM)
In short: as §1

Cell Line | relative viability (GSK-J4 + Foretinib; first compound 0.5 µM) | relative viability (GSK-J4 + Foretinib; first compound 1.581 µM) | relative viability (GSK-J4 + Foretinib; first compound 15.81 µM) | relative viability (GSK-J4 + Foretinib; first compound 50 µM) | relative viability (AZ3146 + Navitoclax; first compound 0.08 µM) | relative viability (AZ3146 + Navitoclax; first compound 0.253 µM) | relative viability (AZ3146 + Navitoclax; first compound 0.8 µM) | relative viability (AZ3146 + Navitoclax; first compound 2.53 µM) | relative viability (AZ3146 + Navitoclax; first compound 8 µM) | relative viability (AZ3146 + Decitabine; first compound 0.253 µM) | relative viability (AZ3146 + Decitabine; first compound 0.8 µM) | relative viability (AZ3146 + Decitabine; first compound 2.53 µM) | relative viability (AZ3146 + Decitabine; first compound 8 µM) | relative viability (GSK-J4 + Decitabine; first compound 0.5 µM) | relative viability (GSK-J4 + Decitabine; first compound 1.581 µM) | relative viability (GSK-J4 + Decitabine; first compound 15.81 µM) | relative viability (GSK-J4 + Decitabine; first compound 50 µM) | relative viability (GSK-J4 + Foretinib; first compound 5 µM) | relative viability (AZ3146 + Decitabine; first compound 0.08 µM) | relative viability (GSK-J4 + Decitabine; first compound 5 µM)
LU99A | 0.731 | 0.78 | 0.809 | 0.523 | 0.698 | 0.764 | 1.01 | 0.868 | 0.834 | 0.848 | 0.879 | 0.82 | 1.02 | 0.791 | 0.725 | 0.846 | 0.554 | – | – | –
NCI-H358 | 0.677 | 0.684 | 0.616 | 0.631 | – | – | – | – | – | 0.225 | 0.182 | 0.207 | 0.159 | 0.206 | – | 0.177 | 0.159 | 0.639 | 0.201 | 0.216
NCI-H522 | – | – | – | – | – | – | – | – | – | 0.589 | 0.683 | 0.616 | 0.714 | 0.776 | 0.611 | 0.573 | 0.651 | – | 0.732 | –
NCI-H650 | 0.972 | 1.01 | 0.941 | 0.712 | – | – | – | – | – | 0.31 | 0.324 | 0.317 | 0.323 | 0.289 | 0.326 | 0.283 | 0.334 | 0.686 | 0.307 | –
NCI-H661 | 0.983 | 0.995 | 0.969 | 0.805 | – | – | – | – | – | 0.514 | 0.607 | 0.555 | 0.448 | 0.548 | 0.5 | 0.497 | 0.441 | 0.86 | 0.541 | 0.485
NCI-H1299 | 1.06 | 1.03 | 1.07 | 1.11 | 1.02 | 1.02 | 1.06 | 1 | 1.01 | – | – | – | – | – | – | – | – | 0.994 | – | –
NCI-H1563 | 0.943 | 0.898 | 0.801 | 0.973 | – | – | – | – | – | – | – | – | – | – | – | – | – | 0.747 | – | –
NCI-H1648 | – | – | – | – | – | – | – | – | – | – | 0.514 | 0.562 | 0.429 | 0.569 | – | – | 0.482 | – | – | 0.718
NCI-H1703 | 0.319 | 0.403 | 0.325 | 0.304 | 1.06 | 0.91 | 0.993 | 0.708 | 0.283 | – | – | – | – | – | – | – | – | 0.337 | – | –
NCI-H1792 | – | – | – | – | 0.492 | 0.786 | 0.582 | 0.64 | 0.654 | 0.503 | 0.54 | 0.641 | 0.669 | 0.559 | 0.472 | 0.428 | 0.43 | – | 0.399 | 0.589
NCI-H2228 | 0.764 | 1.03 | 0.817 | 1.06 | 0.901 | 0.8 | 0.961 | 0.935 | 0.845 | – | – | – | – | – | – | – | – | 0.854 | – | –
NCI-H2342 | 1.02 | 1.02 | 1.01 | 1.11 | – | – | – | – | – | 0.681 | 0.756 | 0.683 | 0.714 | 0.645 | 0.691 | 0.75 | 0.7 | 1.11 | 0.653 | 0.776
SW 900 | 0.681 | 0.836 | 0.591 | 0.431 | – | – | – | – | – | – | 0.442 | 0.451 | 0.558 | 0.376 | 0.354 | 0.48 | 0.343 | 1.05 | 0.389 | 0.469
